# Assay results taken from patent US20260262643A1, “HERBICIDAL BENZOXAZINES” (FMC CORPORATION, priority 2022, published 2026).
# Key:
# barnyardgrass [1] = assay: Test C preemergence; assay type: in vivo, Echinochloa crusgalli; conditions: preemergence, 0 to 100 scale (0 no effect, 100 complete control)
# Outline: (§1)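 Visual injury score, 0–100 (100 = complete control), taken 10 days after treatment relative to untreated controls. Pre: directed spray onto soil over sown seeds. Post: foliar spray at one- to two-leaf stage, 2–10 cm. Solvent/surfactant formulation; loam–sand soil; greenhouse.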
# blackgrass [2] = assay: Test C preemergence; assay type: in vivo, Alopecurus myosuroides; conditions: preemergence, 0 to 100 scale (0 no effect, 100 complete control)
# Outline: as §1
# corn [3] = assay: Test C preemergence; assay type: in vivo, Zea mays; conditions: preemergence, 0 to 100 scale (0 no effect, 100 complete control)
# Outline: as §1
# green foxtail [4] = assay: Test C preemergence; assay type: in vivo, Setaria viridis; conditions: preemergence, 0 to 100 scale (0 no effect, 100 complete control)
# Outline: as §1
# kochia [5] = assay: Test C preemergence; assay type: in vivo, Bassia scoparia; conditions: preemergence, 0 to 100 scale (0 no effect, 100 complete control)
# Outline: as §1
# oat, wild [6] = assay: Test C preemergence; assay type: in vivo, Avena fatua; conditions: preemergence, 0 to 100 scale (0 no effect, 100 complete control)
# Outline: as §1
# pigweed, palmer [7] = assay: Test C preemergence; assay type: in vivo, Amaranthus palmeri; conditions: preemergence, 0 to 100 scale (0 no effect, 100 complete control)
# Outline: as §1
# ragweed [8] = assay: Test C preemergence; assay type: in vivo, Ambrosia artemisiifolia; conditions: preemergence, 0 to 100 scale (0 no effect, 100 complete control)
# Outline: as §1
# ryegrass, Italian [9] = assay: Test C preemergence; assay type: in vivo, Lolium multiflorum; conditions: preemergence, 0 to 100 scale (0 no effect, 100 complete control)
# Outline: as §1
# soybean [10] = assay: Test C preemergence; assay type: in vivo, Glycine max; conditions: preemergence, 0 to 100 scale (0 no effect, 100 complete control)
# Outline: as §1
# wheat [11] = assay: Test C preemergence; assay type: in vivo, Triticum aestivum; conditions: preemergence, 0 to 100 scale (0 no effect, 100 complete control)
# Outline: as §1
# barnyardgrass [12] = assay: Test C postemergence; assay type: in vivo, Echinochloa crusgalli; conditions: 10 days, 0 to 100 scale (0 no effect, 100 complete control)
# Outline: as §1
# blackgrass [13] = assay: Test C postemergence; assay type: in vivo, Alopecurus myosuroides; conditions: 10 days, 0 to 100 scale (0 no effect, 100 complete control)
# Outline: as §1
# corn [14] = assay: Test C postemergence; assay type: in vivo, Zea mays; conditions: 10 days, 0 to 100 scale (0 no effect, 100 complete control)
# Outline: as §1
# green foxtail [15] = assay: Test C postemergence; assay type: in vivo, Setaria viridis; conditions: 10 days, 0 to 100 scale (0 no effect, 100 complete control)
# Outline: as §1
# kochia [16] = assay: Test C postemergence; assay type: in vivo, Bassia scoparia; conditions: 10 days, 0 to 100 scale (0 no effect, 100 complete control)
# Outline: as §1
# oat, wild [17] = assay: Test C postemergence; assay type: in vivo, Avena fatua; conditions: 10 days, 0 to 100 scale (0 no effect, 100 complete control)
# Outline: as §1
# pigweed, palmer [18] = assay: Test C postemergence; assay type: in vivo, Amaranthus palmeri; conditions: 10 days, 0 to 100 scale (0 no effect, 100 complete control)
# Outline: as §1
# ragweed [19] = assay: Test C postemergence; assay type: in vivo, Ambrosia artemisiifolia; conditions: 10 days, 0 to 100 scale (0 no effect, 100 complete control)
# Outline: as §1
# ryegrass, Italian [20] = assay: Test C postemergence; assay type: in vivo, Lolium multiflorum; conditions: 10 days, 0 to 100 scale (0 no effect, 100 complete control)
# Outline: as §1
# soybean [21] = assay: Test C postemergence; assay type: in vivo, Glycine max; conditions: 10 days, 0 to 100 scale (0 no effect, 100 complete control)
# Outline: as §1
# wheat [22] = assay: Test C postemergence; assay type: in vivo, Triticum aestivum; conditions: 10 days, 0 to 100 scale (0 no effect, 100 complete control)
# Outline: as §1
# galium = assay: Test C postemergence; assay type: in vivo, Galium aparine; conditions: 10 days, 0 to 100 scale (0 no effect, 100 complete control)
# Outline: as §1
# horseweed = assay: Test C postemergence; assay type: in vivo, Erigeron canadensis; conditions: 10 days, 0 to 100 scale (0 no effect, 100 complete control)
# Outline: as §1
# barnyardgrass [23] = assay: Test D flooded paddy test; assay type: in vivo, Echinochloa crus-galli; conditions: 250 g ai/ha, applied to paddy water, visual rating after 13 to 14 days, scale 0 to 100 (0 no effect, 100 complete control)
# Outline: (§2)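 Post-flood water application at the 2-leaf stage; 3 cm flood depth kept constant; visual control rating 0–100 after 13–14 days greenhouse growth.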
# ducksalad = assay: Test D flooded paddy test; assay type: in vivo, Heteranthera limosa; conditions: 250 g ai/ha, applied to paddy water, visual rating after 13 to 14 days, scale 0 to 100 (0 no effect, 100 complete control)
# Outline: as §2
# rice = assay: Test D flooded paddy test; assay type: in vivo, Oryza sativa; conditions: 250 g ai/ha, applied to paddy water, visual rating after 13 to 14 days, scale 0 to 100 (0 no effect, 100 complete control)
# Outline: as §2
# sedge, umbrella = assay: Test D flooded paddy test; assay type: in vivo, Cyperus difformis; conditions: 250 g ai/ha, applied to paddy water, visual rating after 13 to 14 days, scale 0 to 100 (0 no effect, 100 complete control)
# Outline: as §2
smiles,measurement,setting,value
COC(=O)c1ncn(-c2ccc(C)c(C(=O)N3C[C@H](C)Oc4c(Cl)cccc43)c2)n1 [Compound 315],Barnyardgrass plant response rating,barnyardgrass [1]; 500 g ai/ha,90
same,Barnyardgrass plant response rating,"barnyardgrass [1]; Test C, 125 g ai/ha",0
same,Blackgrass plant response rating,blackgrass [2]; 500 g ai/ha,50
same,Blackgrass plant response rating,"blackgrass [2]; Test C, 125 g ai/ha",0
same,Corn plant response rating,corn [3]; 500 g ai/ha,0
same,Corn plant response rating,"corn [3]; Test C, 125 g ai/ha",0
same,"Foxtail, Green plant response rating",green foxtail [4]; 500 g ai/ha,90
same,"Foxtail, Green plant response rating","green foxtail [4]; Test C, 125 g ai/ha",30
same,Kochia plant response rating,kochia [5]; 500 g ai/ha,0
same,Kochia plant response rating,"kochia [5]; Test C, 125 g ai/ha",0
same,"Oat, Wild plant response rating","oat, wild [6]; 500 g ai/ha",60
same,"Oat, Wild plant response rating","oat, wild [6]; Test C, 125 g ai/ha",0
same,"Pigweed, Palmer plant response rating","pigweed, palmer [7]; 500 g ai/ha",100
same,"Pigweed, Palmer plant response rating","pigweed, palmer [7]; Test C, 125 g ai/ha",10
same,Ragweed plant response rating,ragweed [8]; 500 g ai/ha,30
same,Ragweed plant response rating,"ragweed [8]; Test C, 125 g ai/ha",0
same,"Ryegrass, Italian plant response rating","ryegrass, Italian [9]; 500 g ai/ha",90
same,"Ryegrass, Italian plant response rating","ryegrass, Italian [9]; Test C, 125 g ai/ha",40
same,Soybean plant response rating,soybean [10]; 500 g ai/ha,0
same,Soybean plant response rating,"soybean [10]; Test C, 125 g ai/ha",0
same,Wheat plant response rating,wheat [11]; 500 g ai/ha,30
same,Wheat plant response rating,"wheat [11]; Test C, 125 g ai/ha",0
same,"Plant response rating, Barnyardgrass","barnyardgrass [12]; 500 g ai/ha, postemergence",80
same,"Plant response rating, Barnyardgrass","barnyardgrass [12]; Postemergence, 125 g ai/ha",60
same,"Plant response rating, Blackgrass","blackgrass [13]; 500 g ai/ha, postemergence",90
same,"Plant response rating, Blackgrass","blackgrass [13]; Postemergence, 125 g ai/ha",70
same,"Plant response rating, Corn","corn [14]; 500 g ai/ha, postemergence",40
same,"Plant response rating, Corn","corn [14]; Postemergence, 125 g ai/ha",30
same,"Plant response rating, Foxtail, Green","green foxtail [15]; 500 g ai/ha, postemergence",90
same,"Plant response rating, Foxtail, Green","green foxtail [15]; Postemergence, 125 g ai/ha",80
same,"Plant response rating, Kochia","kochia [16]; 500 g ai/ha, postemergence",50
same,"Plant response rating, Kochia","kochia [16]; Postemergence, 125 g ai/ha",40
same,"Plant response rating, Oat, Wild","oat, wild [17]; 500 g ai/ha, postemergence",90
same,"Plant response rating, Oat, Wild","oat, wild [17]; Postemergence, 125 g ai/ha",50
same,"Plant response rating, Pigweed, Palmer","pigweed, palmer [18]; 500 g ai/ha, postemergence",100
same,"Plant response rating, Pigweed, Palmer","pigweed, palmer [18]; Postemergence, 125 g ai/ha",80
same,"Plant response rating, Ragweed","ragweed [19]; 500 g ai/ha, postemergence",70
same,"Plant response rating, Ragweed","ragweed [19]; Postemergence, 125 g ai/ha",70
same,"Plant response rating, Ryegrass, Italian","ryegrass, Italian [20]; 500 g ai/ha, postemergence",80
same,"Plant response rating, Ryegrass, Italian","ryegrass, Italian [20]; Postemergence, 125 g ai/ha",60
same,"Plant response rating, Soybean","soybean [21]; 500 g ai/ha, postemergence",100
same,"Plant response rating, Soybean","soybean [21]; Postemergence, 125 g ai/ha",70
same,"Plant response rating, Wheat","wheat [22]; 500 g ai/ha, postemergence",90
same,"Plant response rating, Wheat","wheat [22]; Postemergence, 125 g ai/ha",80
same,"Plant response rating, Galium","galium; 500 g ai/ha, postemergence",70
same,"Plant response rating, Galium","galium; Postemergence, 125 g ai/ha",70
same,"Plant response rating, Horseweed","horseweed; 500 g ai/ha, postemergence",30
same,"Plant response rating, Horseweed","horseweed; Postemergence, 125 g ai/ha",0
same,"Plant response rating, Barnyardgrass (Flood)",barnyardgrass [23],15
same,"Plant response rating, Ducksalad (Flood)",ducksalad,85
same,"Plant response rating, Rice (Flood)",rice,10
same,"Plant response rating, Sedge, Umbrella (Flood)","sedge, umbrella",60
